Results on one compound are retold here after US20170027868A1, “PEPTIDE-[…]” (priority 2015, published 2017).

Series [1] concerns C26 cells. Briefly: cells.
Method: At first, C26 cells were seeded in RPMI 1640 media in 96-well plates (5000 cells/well) and were incubated at 37° C. After overnight incubation, cells were treated with different concentration of drug (1:2 serial dilutions of liposomal doxorubicin or free doxorubicin in FCS-free medium) and then incubated at 37° C. for 3 and 6 hours.
After scheduled incubation times, cells were washed with pre-warmed complete culture media and re-incubated further for 48 hours at 37° C. and then the viability of cells was determined by MTT assay; for this purpose, 20 ml of MTT (Thiazolyl Blue Tetrazolium Bromide; Sigma-Aldrich) was added to each well of the plate and was incubated for 4 hours at 37° C.
Relative cell death was calculated as follows: R=(A control−A test)/(A control−A blank) where A test and A control were the absorbance of the cells treated with the test dilutions and the culture medium (negative control). A blank was the absorbance of cell free wells.
Series [2] concerns HDM-2-positive C26 cells. The series can be described thus: In vitro cellular binding at 4° C., flow cytometry. It is filed as cell-based. The settings on record: 20 μg doxorubicin/ml, 1 hour, FIG. 5B. The protocol: (§1) The exemplary procedure was as follows: cells were detached from cell culture dishes by using 0.05% trypsin and 0.02% EDTA (GIBCO). […] Afterward, the cells were washed three times with PBS and re-suspended in an appropriate volume of the buffer and were analyzed by flow cytometry. BD FACS Calibur equipped was used to read fluorescence signal.
On the technique in general: A flow cytometer gives signals particle by particle.

Series [3] concerns C26 cells. The series can be described thus: In vitro cellular uptake at 37° C., flow cytometry. The settings on record: 20 μg doxorubicin/ml, 3 hours, FIG. 6B. It is filed as cell-based.
Method: (§2) For evaluating in vitro cellular uptake, NIH3T3 cells were seeded in complete DMEM and C26 were seeded in complete RPMI in 24-well plates (2×10^5 cells/well). […] Then, cells were washed with PBS, detached by 100 μl of trypsin-EDTA solution (Gibco, UK) and centrifuged at 1500 rpm for 5 minutes. The cells were washed with cold PBS three times and resuspended in staining buffer before analysis. […] Then 0.9 ml of an acidified isopropanol was added to each well, and the mixture was incubated overnight at 4° C. to extract the cell-associated doxorubicin. After sedimentation of the cell debris, doxorubicin concentration was measured.
(§3) Referring to FIGS. 6A and 6B, the geometric mean fluorescence intensity (MFI) of doxorubicin in cells was analyzed by using flow cytometry (FCM) in the FL2 channel.
The test system of series [4] is HDM-2-negative NIH-3T3 cells. The settings on record: NIH3T3 cells, 20 μg doxorubicin/ml, 37° C., 3 hours; FIG. 6A.
Method: as §2, §3
The nature of series [5]: Bio-distribution study in tumor-bearing mice. The following applies: 24 and 48 h; FIG. 8A.
Method: Blood samples were collected 3, 6, and 12 hours after drug injection via retro orbital bleeding.
Animals were sacrificed at 24 and 48 h after drug administration and blood samples were drawn by heart puncture. The whole tumor, one of the kidneys, spleen, heart, lungs as well as a portion of the liver and muscle were dissected, weighted and homogenized in acidified isopropanol with zirconia beads by Mini-Beadbeater-1 (Biospec, OK). Then the blood and the homogenized tissue samples were centrifuged and the blood serum as well as the sera of tissue samples were diluted in adequate volume of acidified isopropanol and stored at 4° C. overnight for Doxorubicin extraction.
The samples were centrifuged and the supernatant was assayed for Doxorubicin concentration by measuring fluorescence at λEx/Em=480/590 nm compared with Doxorubicin calibration curves, which were prepared in the tissue and sera extracts of the control mice. The pharmacokinetic concentration of doxorubicin was shown as μg/ml of serum.
Series [6] has as its system C-26 colon carcinoma tumor. Briefly: In vivo tumor-targeted therapeutic study. The following applies: mice bearing C-26 tumor.
Method: Tumor models were C26 colon carcinoma in BALB/c mice Female BALB/c mice 4-6 week's old and female C57BL/6 mice 6-12 weeks old were injected subcutaneously in the right flank with tumor cells.
Also tumor size was monitored three times a week for 60 days. Three dimensions of tumor (height, length and width) were measured with calipers and tumor volume was calculated via the following formula: tumor volume=(height×length×width)×0.5 cm^3. According to instructions for C26 tumor bearing animals, euthanasia was occurred when their body weight decreased (>20% loss of initial mass), their tumor was greater than 2.0 cm in one dimension or they became sick and unable to feed.
The median survival time (MST) and time to reach end point (TTE) for each mouse were calculated from the equation of the line obtained by exponential regression of the tumor growth curve. Subsequently, the percent of tumor growth delay (TGD) were calculated based on the difference between the mean TTE of treatment group (T) and the mean TTE of the control group (C) (% TGD=[(T−C)/C]×100).
In series [7] the test system is HDM-2-negative NIH-3T3 cells. Briefly: In vitro cellular binding at 4° C., flow cytometry. It counts as cell-based, mouse. The settings on record: NIH3T3 cells, 20 μg doxorubicin/ml, 1 hour, FIG. 5A. Here is the method:
as §1

[8] abbreviates: single i.v. dose 15 mg/kg doxorubicin.

Where two headings read alike, the source gives them in different places.

Turning to `COc1cccc2c1C(=O)c1c(O)c3c(c(O)c1C2=O)C[C@@](O)(C(=O)CO)C[C@@H]3O[C@H]1C[C@H](N)[C@H](O)[C@H](C)O1` [Free doxorubicin, doxorubicin], the concentration for half-maximal inhibition (IC50) in series [1] (C26, read-out: IC50 (μM ± SD), C26 cells, 3 h exposure, then 48 h re-incubation) worked out at 0.625 ± 0.07 µM; in series [1] (C26, read-out: IC50 (μM ± SD), C26 cells, 6 h exposure, then 48 h re-incubation) it was 0.302 ± 0.05 µM. Besides, the cellular binding entry in series [2] and in series [7] was “more than other forms of drugs” in each case. Besides, the “cellular uptake (MFI of doxorubicin)” value in series [3] and in series [4] was “too high” each time. The bio-distribution in serum entry in series [5] is “decreasing trend over time”. Also, the “TGD (tumor growth delay)” value in series [6] (15 mg/kg, [(T−C)/C]×100 of mean TTE) turned out to be 24.42%. In series [6] (setting [8]), the “MST (median survival time)” value worked out at 27 days. Besides, the “TTE (time to reach end point)” value in series [6] (setting [8]) turned out to be 27 days.

As a reminder, the IC50 is the midpoint of a concentration-inhibition curve.
